Patent publication US9296774B2, “Halogenated dideoxy sugar derivates, preparation method and application thereof” (Suzhou Harmony Biotechnology Co., Ltd., priority 2009, dated 2016)
Entries after “also recorded” stand apart in the source; their conditions may differ.

Tests used:
[1] = system: anaplastic thyroid carcinoma TA-K cells; assay: Mouse transplant tumor, human anaplastic thyroid carcinoma TA-K; conditions: for inhibitive effect on mouse transplant tumor (in words): anaplastic thyroid carcinoma TA-K, 125 mg/kg; for Inhibition of tumor growth / Weight of tumor / weight end / weight start: human anaplastic thyroid carcinoma TA-K, 125 mg/kg once a day for 7 days; for weight end: animal weight at end; for weight start: animal weight at start;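 on all read-outs here: Tumor-bearing mice compared against a saline-treated control group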
Procedure: (§1) Saline solution was used as a control. The positive group CTX was treated with the compounds at an amount of 0.4 ml/20 g. The compounds were applied once a day for consecutive 7 days.

in vivo [2] = conditions: mouse, ip
[3] = system: AsPc human pancreatic cancer cells; assay: Mouse transplant tumor, AsPc human pancreatic cancer; conditions: for inhibitive effect on mouse transplant tumor (in words): 125 mg/kg; for Inhibition of tumor growth / Weight of tumor / weight end / weight start: 125 mg/kg once a day for 7 days; for weight end: animal weight at end; for weight start: animal weight at start;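 on all read-outs here: Saline-treated mice served as the control group, with a CTX-treated group as positive reference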
Procedure: as §1

B16 malignant melanoma = assay: Mouse transplant tumor, B16 malignant melanoma; conditions: for Inhibition of tumor growth (%) / Weight of tumor / weight end / weight start: B16, 125 mg/kg once a day for 7 days; for weight end: body weight at end; for weight start: body weight at start; for inhibitive effect on mouse transplant tumor (in words): B16 malignant melanoma, 125 mg/kg
Procedure: as §1

05-732 human bone tumor = assay: Mouse transplant tumor, 05-732 human osteosarcoma; conditions: for inhibitive effect on mouse transplant tumor (in words): 05-732 human bone tumor, 125 mg/kg; for Inhibtion of tumor growth / Weight of tumor / weight end / weight start: 05-732 human osteosarcoma, 125 mg/kg once a day for 7 days; for weight end: animal weight at end; for weight start: animal weight at start
Procedure: as §1

[4] = system: MGC human stomach cancer cells; assay: Mouse transplant tumor, MGC human stomach cancer; conditions: for inhibitive effect on mouse transplant tumor (in words): 125 mg/kg; for Inhibition of tumor growth / Weight of tumor / weight end / weight start: 125 mg/kg once a day for 7 days; for weight end: animal weight at end; for weight start: animal weight at start;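 on all read-outs here: control group received saline vehicle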
Procedure: Saline solution was used as a control. The positive group CTX was treated with the compounds at an amount of 0.4 ml/20 g. The compounds were applied once a day for consecutive 7 days. The animals were then compensated.

in vivo [5] = conditions: mouse, po
[6] = system: MX-1 human breast cancer cells; assay: Mouse transplant tumor, MX-1 human breast cancer; conditions: for inhibitive effect on mouse transplant tumor (in words): 125 mg/kg; for Inhibition of tumor growth / Weight of tumor / weight end / weight start: 125 mg/kg once a day for 7 days; for weight end: animal weight at end; for weight start: animal weight at start;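 on all read-outs here: mice given saline served as the control group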
Procedure: as §1

mouse [7] = assay: Acute toxicity (LD50), mouse ig
mouse [8] = assay: Acute toxicity (LD50), mouse ip injection; conditions: mouse ip after injection

For `CC(=O)OCC1OC(Br)C(Br)CC1OC(C)=O` (single isomer, unassigned) [Compound 3], the “inhibitive effect on mouse transplant tumor (in words)” value (“inhibitive effect” below) [1] was “good inhibitive effect; also recorded: significant effect”, the “Inhibition of tumor growth” value [1] was 73.2 and the Weight of tumor [1] was 0.7. For the same compound, the weight end [1] was 18.3, the weight start [1] was 18.2 and the LD50 (in vivo [2]) was 359 mg/kg. The “inhibitive effect” value [3] was “good inhibitive effect; also recorded: significant effect”, the “Inhibition of tumor growth” value [3] was 77.3 and the Weight of tumor [3] was 0.5. The weight end [3] was 18.3, the weight start [3] was 18.2 and the “Inhibition of tumor growth (%)” value (B16 malignant melanoma) was 76.8%. For the same compound, the Weight of tumor (B16 malignant melanoma) was 0.6, the weight end (B16 malignant melanoma) was 18.3 and the weight start (B16 malignant melanoma) was 18.2. For the same compound, the “inhibitive effect” value (B16 malignant melanoma) was “good inhibitive effect; also recorded: significant effect”, the “inhibitive effect” value (05-732 human bone tumor) was “good inhibitive effect; also recorded: significant effect” and the “Inhibtion of tumor growth” value (05-732 human bone tumor) was 71.5. For the same compound, the Weight of tumor (05-732 human bone tumor) was 0.8, the weight end (05-732 human bone tumor) was 18.3 and the weight start (05-732 human bone tumor) was 18.2. For the same compound, the “inhibitive effect” value [4] was “good inhibitive effect; also recorded: significant effect”, the “Inhibition of tumor growth” value [4] was 72.5 and the Weight of tumor [4] was 0.7. It also gave a weight end [4] of 18.3, a weight start [4] of 18.2 and an LD50 (in vivo [5]) of 2320 mg/kg. The “inhibitive effect” value [6] was “good inhibitive effect; also recorded: significant effect”, the “Inhibition of tumor growth” value [6] was 75.8 and the Weight of tumor [6] was 0.6. The weight end [6] was 18.3 and the weight start [6] was 18.2.
`CC(=O)OCC1OC(Br)C(Br)CC1OC(C)=O` (single isomer, unassigned) [Compound 4] gave an LD50 (mouse [7]) of 2389.2 mg/kg and an LD50 (mouse [8]) of 356.2 mg/kg.
In the case of `CC(=O)OCC1OC(OP(=O)(NCCCl)NCCCl)CC(Br)C1OC(C)=O` (single isomer, unassigned) [Compound 5], the “inhibitive effect” value [1] is reported as “good inhibitive effect; also recorded: significant effect”, the “Inhibition of tumor growth” value [1] is reported as 76.6 and the Weight of tumor [1] is reported as 0.6. For the same compound, the weight end [1] was 18.6, the weight start [1] was 18.3 and the LD50 (in vivo [2]) was 301 mg/kg. For the same compound, the “inhibitive effect” value [3] was “good inhibitive effect; also recorded: significant effect”, the “Inhibition of tumor growth” value [3] was 81.5 and the Weight of tumor [3] was 0.4. For the same compound, the weight end [3] was 18.6, the weight start [3] was 18.3 and the “Inhibition of tumor growth (%)” value (B16 malignant melanoma) was 76.4%. For the same compound, the Weight of tumor (B16 malignant melanoma) was 0.6, the weight end (B16 malignant melanoma) was 18.6 and the weight start (B16 malignant melanoma) was 18.3. For the same compound, the “inhibitive effect” value (B16 malignant melanoma) was “good inhibitive effect; also recorded: significant effect”, the “inhibitive effect” value (05-732 human bone tumor) was “good inhibitive effect; also recorded: significant effect” and the “Inhibtion of tumor growth” value (05-732 human bone tumor) was 74.9. For the same compound, the Weight of tumor (05-732 human bone tumor) was 0.7, the weight end (05-732 human bone tumor) was 18.6 and the weight start (05-732 human bone tumor) was 18.3. The “inhibitive effect” value [4] was “good inhibitive effect; also recorded: significant effect”, the “Inhibition of tumor growth” value [4] was 75.7 and the Weight of tumor [4] was 0.6. For the same compound, the weight end [4] was 18.6, the weight start [4] was 18.3 and the LD50 (in vivo [5]) was 2120 mg/kg. The “inhibitive effect” value [6] was “good inhibitive effect; also recorded: significant effect”, the “Inhibition of tumor growth” value [6] was 83.6 and the Weight of tumor [6] was 0.4. For the same compound, the weight end [6] was 18.6 and the weight start [6] was 18.3.
Work on `CC(=O)OCC1OC(OP(=O)(NCCCl)NCCCl)CC(Br)C1OC(C)=O` (single isomer, unassigned) [Compound 6] yielded an LD50 (mouse [7]) of 2205.8 mg/kg and an LD50 (mouse [8]) of 307.1 mg/kg.
For `CC(=O)OCC1OC(OP(=O)(NCCCl)NCCCl)C(Br)CC1OC(C)=O` (single isomer, unassigned) [Compound 7], the “inhibitive effect” value [1] was “good inhibitive effect; also recorded: significant effect”, the “Inhibition of tumor growth” value [1] was 84.2 and the Weight of tumor [1] was 0.4. It also gave a weight end [1] of 18.4, a weight start [1] of 18.3 and an LD50 (in vivo [2]) of 316 mg/kg. The “inhibitive effect” value [3] was “good inhibitive effect; also recorded: significant effect”, the “Inhibition of tumor growth” value [3] was 73.6 and the Weight of tumor [3] was 0.6. For the same compound, the weight end [3] was 18.4, the weight start [3] was 18.3 and the “Inhibition of tumor growth (%)” value (B16 malignant melanoma) was 80.4%. It also gave a Weight of tumor (B16 malignant melanoma) of 0.5, a weight end (B16 malignant melanoma) of 18.4 and a weight start (B16 malignant melanoma) of 18.3. The “inhibitive effect” value (B16 malignant melanoma) was “good inhibitive effect; also recorded: significant effect”, the “inhibitive effect” value (05-732 human bone tumor) was “good inhibitive effect; also recorded: significant effect” and the “Inhibtion of tumor growth” value (05-732 human bone tumor) was 81.3. It also gave a Weight of tumor (05-732 human bone tumor) of 0.5, a weight end (05-732 human bone tumor) of 18.4 and a weight start (05-732 human bone tumor) of 18.3. The “inhibitive effect” value [4] was “good inhibitive effect; also recorded: significant effect”, the “Inhibition of tumor growth” value [4] was 83.8 and the Weight of tumor [4] was 0.4. For the same compound, the weight end [4] was 18.4, the weight start [4] was 18.3 and the LD50 (in vivo [5]) was 2220 mg/kg. The “inhibitive effect” value [6] was “good inhibitive effect; also recorded: significant effect”, the “Inhibition of tumor growth” value [6] was 80.8 and the Weight of tumor [6] was 0.5. The weight end [6] was 18.4 and the weight start [6] was 18.3.
`CC(=O)OCC1OC(OP(=O)(NCCCl)NCCCl)C(Br)CC1OC(C)=O` (single isomer, unassigned) [Compound 8] showed an LD50 (mouse [7]) of 2017.5 mg/kg and an LD50 (mouse [8]) of 301.4 mg/kg.
Compound `CC(=O)OCC1OC(OP(=O)(O)N(CCCl)CCCl)CC(Br)C1OC(C)=O` (stereo not shown) [Compound 9] has an LD50 (in vivo [2]) of 307 mg/kg and an LD50 (in vivo [5]) of 2140 mg/kg.
With `CC(=O)OCC1OC(OP(=O)(O)N(CCCl)CCCl)CC(Br)C1OC(C)=O` (stereo not shown) [Compound 10] the “inhibitive effect” value [1] was “good inhibitive effect; also recorded: significant effect”, the “Inhibition of tumor growth” value [1] was 71.2 and the Weight of tumor [1] was 0.8. The weight end [1] was 18.3, the weight start [1] was 18.3 and the LD50 (mouse [7]) was 2223.7 mg/kg. For the same compound, the “inhibitive effect” value [3] was “good inhibitive effect; also recorded: significant effect”, the “Inhibition of tumor growth” value [3] was 76.9 and the Weight of tumor [3] was 0.5. It also gave a weight end [3] of 18.3, a weight start [3] of 18.3 and an LD50 (mouse [8]) of 315.6 mg/kg. The “Inhibition of tumor growth (%)” value (B16 malignant melanoma) was 73.1%, the Weight of tumor (B16 malignant melanoma) was 0.7 and the weight end (B16 malignant melanoma) was 18.3. For the same compound, the weight start (B16 malignant melanoma) was 18.3, the “inhibitive effect” value (B16 malignant melanoma) was “good inhibitive effect; also recorded: significant effect” and the “inhibitive effect” value (05-732 human bone tumor) was “good inhibitive effect; also recorded: significant effect”. The “Inhibtion of tumor growth” value (05-732 human bone tumor) was 78.4, the Weight of tumor (05-732 human bone tumor) was 0.6 and the weight end (05-732 human bone tumor) was 18.3. The weight start (05-732 human bone tumor) was 18.3, the “inhibitive effect” value [4] was “good inhibitive effect; also recorded: significant effect” and the “Inhibition of tumor growth” value [4] was 73.2. It also gave a Weight of tumor [4] of 0.6, a weight end [4] of 18.3 and a weight start [4] of 18.3. The “inhibitive effect” value [6] was “good inhibitive effect; also recorded: significant effect”, the “Inhibition of tumor growth” value [6] was 73.2 and the Weight of tumor [6] was 0.7. The weight end [6] was 18.3 and the weight start [6] was 18.3.
For `CC(=O)OCC1OC(OP(=O)(O)N(CCCl)CCCl)C(Br)CC1OC(C)=O` (stereo not shown) [Compound 11], the LD50 (in vivo [2]) was 323 mg/kg and the LD50 (in vivo [5]) was 2030 mg/kg.
In the case of `COc1cc(C2c3cc4c(cc3C(C3CC(Br)C(OC(C)=O)C(COC(C)=O)O3)C3COC(=O)C23)OCO4)cc(OC)c1O` (stereo not shown) [Compound 13], the “inhibitive effect” value [1] is reported as “good inhibitive effect”, the LD50 (in vivo [2]) is reported as 299 mg/kg and the “inhibitive effect” value [3] is reported as “good inhibitive effect”. The “inhibitive effect” value (B16 malignant melanoma) was “good inhibitive effect”, the “inhibitive effect” value (05-732 human bone tumor) was “good inhibitive effect” and the “inhibitive effect” value [4] was “good inhibitive effect”. The LD50 (in vivo [5]) was 1830 mg/kg and the “inhibitive effect” value [6] was “good inhibitive effect”.
With `COc1cc(C2c3cc4c(cc3C(C3OC(COC(C)=O)C(OC(C)=O)CC3Br)C3COC(=O)C23)OCO4)cc(OC)c1O` (stereo not shown) [Compound 14] the “inhibitive effect” value [1] was “good inhibitive effect; also recorded: significant effect”, the “Inhibition of tumor growth” value [1] was 76.2 and the Weight of tumor [1] was 0.6. For the same compound, the LD50 (in vivo [2]) was 300 mg/kg, the “inhibitive effect” value [3] was “good inhibitive effect; also recorded: significant effect” and the “Inhibition of tumor growth” value [3] was 75.2. For the same compound, the Weight of tumor [3] was 0.3, the “Inhibition of tumor growth (%)” value (B16 malignant melanoma) was 76.2% and the Weight of tumor (B16 malignant melanoma) was 0.6. The “inhibitive effect” value (B16 malignant melanoma) was “good inhibitive effect; also recorded: significant effect”, the “inhibitive effect” value (05-732 human bone tumor) was “good inhibitive effect; also recorded: significant effect” and the “Inhibtion of tumor growth” value (05-732 human bone tumor) was 72.3. For the same compound, the Weight of tumor (05-732 human bone tumor) was 0.8, the “inhibitive effect” value [4] was “good inhibitive effect; also recorded: significant effect” and the “Inhibition of tumor growth” value [4] was 71.9. For the same compound, the Weight of tumor [4] was 0.7, the LD50 (in vivo [5]) was 1970 mg/kg and the “inhibitive effect” value [6] was “good inhibitive effect; also recorded: significant effect”. The “Inhibition of tumor growth” value [6] was 76.3 and the Weight of tumor [6] was 0.6.
